Laboratory results reported in ChEMBL document CHEMBL1201862, “PubChem BioAssay data set” (2004).
One block for each compound: values may come before it. Active and inactive are the calls of the source.

Key:
[1] = target: T1, DNA dC->dU-editing enzyme APOBEC-3G (Homo sapiens, UniProt Q9HC16); type: functional
[2] = target: T2, DNA dC->dU-editing enzyme APOBEC-3A (Homo sapiens, UniProt P31941); assay: Dose Response confirmation of small molecule APOBEC3A DNA Deaminase Inhibitors via a fluorescence-based single-stranded DNA deaminase assay. [Related pubchem assays (depositor defined):AID493011, AID493024]; type: functional
T2 sequence (P31941 whole entry): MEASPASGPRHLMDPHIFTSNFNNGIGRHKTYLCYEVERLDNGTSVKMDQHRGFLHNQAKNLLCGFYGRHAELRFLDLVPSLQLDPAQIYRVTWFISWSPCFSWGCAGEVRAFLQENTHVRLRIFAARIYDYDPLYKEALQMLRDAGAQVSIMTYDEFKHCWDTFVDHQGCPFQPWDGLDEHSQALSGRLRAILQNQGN

[3] = target: T2, DNA dC->dU-editing enzyme APOBEC-3A; assay: A3A deaminase inhibition for selectivity – biochemical, dose response (AID 504722); type: functional
[4] = target: T1, DNA dC->dU-editing enzyme APOBEC-3G; assay: Dose Response confirmation of small molecule APOBEC3G DNA Deaminase Inhibitors via a fluorescence-based single-stranded DNA deaminase assay. [Related pubchem assays (depositor defined):AID493012, AID493028]; type: functional
[5] = target: G-protein coupled receptor 55 (Homo sapiens, UniProt Q9Y2T6); assay: SAR Analysis of Selective Antagonists of GPR55 using an Image-Based Assay - Set 3. [Related pubchem assays (depositor defined):AID2058, AID2079]; type: functional
Chain of G-protein coupled receptor 55 (Q9Y2T6 whole entry): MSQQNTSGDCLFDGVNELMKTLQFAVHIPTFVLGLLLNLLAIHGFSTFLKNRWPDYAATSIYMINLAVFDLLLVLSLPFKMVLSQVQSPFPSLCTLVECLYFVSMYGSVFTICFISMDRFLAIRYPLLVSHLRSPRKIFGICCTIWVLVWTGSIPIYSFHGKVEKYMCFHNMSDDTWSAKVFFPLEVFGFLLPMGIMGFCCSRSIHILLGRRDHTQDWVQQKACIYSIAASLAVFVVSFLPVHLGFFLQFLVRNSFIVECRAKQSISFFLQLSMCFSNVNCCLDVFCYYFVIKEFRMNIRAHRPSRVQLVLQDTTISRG

[6] = target: G-protein coupled receptor 35 (Homo sapiens, UniProt Q9HC97); assay: SAR analysis of Antagonists of the GPR35 Receptor using an Image-Based Assay - Set 5. [Related pubchem assays (depositor defined):AID2058, AID2079]; type: functional
Chain of G-protein coupled receptor 35 (Q9HC97 whole entry): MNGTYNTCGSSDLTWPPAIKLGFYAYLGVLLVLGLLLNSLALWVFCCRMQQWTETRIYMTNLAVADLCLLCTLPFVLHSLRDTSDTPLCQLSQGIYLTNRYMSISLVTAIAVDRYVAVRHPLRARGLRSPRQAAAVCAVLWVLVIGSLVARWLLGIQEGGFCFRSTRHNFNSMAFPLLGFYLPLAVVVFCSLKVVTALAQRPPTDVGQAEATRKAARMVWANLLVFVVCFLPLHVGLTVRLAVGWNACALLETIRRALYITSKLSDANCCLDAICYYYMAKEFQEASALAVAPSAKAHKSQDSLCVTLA

Hexokinase HKDC1 = target: T3, Hexokinase HKDC1 (Homo sapiens, UniProt Q2TB90); assay: inhibition of HKDC1 glucose phosphorylation – biochemical, W721R variant, dose response (AID 504729); type: functional
T3 sequence (Q2TB90 whole entry): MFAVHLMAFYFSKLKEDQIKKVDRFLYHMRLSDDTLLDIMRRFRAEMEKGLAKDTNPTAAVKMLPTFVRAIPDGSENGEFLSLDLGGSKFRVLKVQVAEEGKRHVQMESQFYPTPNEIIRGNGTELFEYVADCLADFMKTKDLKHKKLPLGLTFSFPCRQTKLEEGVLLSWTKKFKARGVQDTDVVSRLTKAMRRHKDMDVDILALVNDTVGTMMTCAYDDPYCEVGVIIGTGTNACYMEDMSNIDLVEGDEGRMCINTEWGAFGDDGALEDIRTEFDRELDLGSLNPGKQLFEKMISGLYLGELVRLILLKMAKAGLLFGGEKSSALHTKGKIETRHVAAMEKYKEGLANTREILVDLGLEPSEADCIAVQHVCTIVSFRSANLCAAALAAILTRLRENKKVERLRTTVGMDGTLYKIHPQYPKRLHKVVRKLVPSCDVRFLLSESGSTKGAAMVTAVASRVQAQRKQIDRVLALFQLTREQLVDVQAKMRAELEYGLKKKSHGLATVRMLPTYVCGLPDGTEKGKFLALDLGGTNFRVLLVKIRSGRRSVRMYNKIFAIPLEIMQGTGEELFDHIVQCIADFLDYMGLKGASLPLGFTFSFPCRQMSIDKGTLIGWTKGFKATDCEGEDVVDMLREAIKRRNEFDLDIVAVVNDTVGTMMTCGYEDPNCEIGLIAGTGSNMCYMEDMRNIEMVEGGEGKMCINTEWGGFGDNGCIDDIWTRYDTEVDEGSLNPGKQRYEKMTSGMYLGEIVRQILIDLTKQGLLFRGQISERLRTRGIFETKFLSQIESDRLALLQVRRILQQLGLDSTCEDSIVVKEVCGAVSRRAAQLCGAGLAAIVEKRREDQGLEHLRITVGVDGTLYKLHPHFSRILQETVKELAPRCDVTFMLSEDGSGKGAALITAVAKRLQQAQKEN

CAAX prenyl protease 2 = CAAX prenyl protease 2 (Saccharomyces cerevisiae S288c, UniProt Q03530); type: biochemical
Chain of CAAX prenyl protease 2 (Q03530 whole entry): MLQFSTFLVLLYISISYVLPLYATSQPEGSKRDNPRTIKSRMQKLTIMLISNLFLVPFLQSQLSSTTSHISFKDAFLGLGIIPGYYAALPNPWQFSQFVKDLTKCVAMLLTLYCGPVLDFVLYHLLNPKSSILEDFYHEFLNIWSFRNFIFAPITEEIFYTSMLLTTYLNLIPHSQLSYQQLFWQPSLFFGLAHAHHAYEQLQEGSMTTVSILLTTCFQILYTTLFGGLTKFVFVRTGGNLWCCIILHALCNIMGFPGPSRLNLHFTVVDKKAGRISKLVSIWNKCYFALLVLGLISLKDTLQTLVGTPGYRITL

T1 sequence (Q9HC16 whole entry): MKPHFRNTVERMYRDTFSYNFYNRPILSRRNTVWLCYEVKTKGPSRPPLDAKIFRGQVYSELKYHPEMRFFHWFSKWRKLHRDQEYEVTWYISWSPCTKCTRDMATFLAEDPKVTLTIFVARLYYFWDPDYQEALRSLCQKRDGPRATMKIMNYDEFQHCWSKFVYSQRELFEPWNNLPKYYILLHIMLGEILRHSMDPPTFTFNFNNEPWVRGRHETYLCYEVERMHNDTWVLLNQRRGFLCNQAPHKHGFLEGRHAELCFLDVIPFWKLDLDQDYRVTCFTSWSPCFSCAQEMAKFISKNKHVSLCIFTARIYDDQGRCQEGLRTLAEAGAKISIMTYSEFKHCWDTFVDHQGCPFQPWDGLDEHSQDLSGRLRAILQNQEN

IC50 [5]: > 32 µM (inactive) | IC50 [6]: > 32 µM (inactive)
SMILES: NC(=S)N/N=C/c1c[nH]nc1-c1ccccc1

IC50 (Hexokinase HKDC1): 26 µM (inactive)
SMILES: CCc1nc2sc3c(O)ncnc3c2c2c1CSC(C)(C)C2

AC50 (CAAX prenyl protease 2): 22.7 µM (active)
SMILES: COc1ccc(NS(=O)(=O)c2ccc3oc(=O)c4[nH]c(=O)c(=O)n(C)c4c3c2)cc1

The next lines start with the compound.

SMILES: COc1ccc(C(=O)NC(C)c2nnc(SCc3ccc(Cl)c(Cl)c3)n2C)cc1 (stereo not drawn)
IC50 [1]: 5.45 µM (active) | IC50 [2]: 3.87 µM (active)

SMILES: COc1cccc(/C=N/n2c(S)nnc2-c2cc(C)[nH]n2)c1
IC50 [3]: > 100 µM (inactive) | IC50 [4]: 5.19 µM (active)
